This note sets out measurements from patent US20230092890A1, “1, 3, 4-Oxadiazole derivative compounds as histone deacetylase 6 inhibitor, and the pharmaceutical composition comprising the same” (Chong Kun Dang Pharmaceutical Corp., priority 2019, published 2023).

One assay concerns the target T1, HDAC1 (Homo sapiens, UniProt Q13547).
T1 construct: purchased Enzolifesciences BML-AK511
Briefly: HDAC enzyme activity inhibition (in vitro), HDAC1 Fluorimetric Drug Discovery Assay Kit. Type of assay: biochemical. Conditions: samples at 100, 1000 and 10000 nM; 37° C. 60 minutes; fluorescence Ex 390, Em 460; read-out: HDAC1 IC50. In outline: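 Compound incubated with enzyme 60 min at 37° C, then developer 30 min at 37° C; fluorescence read at Ex 390/Em 460. HDAC1 via fluorimetric kit, compounds at 100, 1000 and 10000 nM; HDAC6 human recombinant, compounds at 0.1, 1, 10, 100 and 1000 nM.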

In a further assay the target is T2, HDAC6 human recombinant (Homo sapiens, UniProt Q9UBN7).
T2 construct: purchased Calbiochem 382180
T2 sequence (Q9UBN7 1-1215): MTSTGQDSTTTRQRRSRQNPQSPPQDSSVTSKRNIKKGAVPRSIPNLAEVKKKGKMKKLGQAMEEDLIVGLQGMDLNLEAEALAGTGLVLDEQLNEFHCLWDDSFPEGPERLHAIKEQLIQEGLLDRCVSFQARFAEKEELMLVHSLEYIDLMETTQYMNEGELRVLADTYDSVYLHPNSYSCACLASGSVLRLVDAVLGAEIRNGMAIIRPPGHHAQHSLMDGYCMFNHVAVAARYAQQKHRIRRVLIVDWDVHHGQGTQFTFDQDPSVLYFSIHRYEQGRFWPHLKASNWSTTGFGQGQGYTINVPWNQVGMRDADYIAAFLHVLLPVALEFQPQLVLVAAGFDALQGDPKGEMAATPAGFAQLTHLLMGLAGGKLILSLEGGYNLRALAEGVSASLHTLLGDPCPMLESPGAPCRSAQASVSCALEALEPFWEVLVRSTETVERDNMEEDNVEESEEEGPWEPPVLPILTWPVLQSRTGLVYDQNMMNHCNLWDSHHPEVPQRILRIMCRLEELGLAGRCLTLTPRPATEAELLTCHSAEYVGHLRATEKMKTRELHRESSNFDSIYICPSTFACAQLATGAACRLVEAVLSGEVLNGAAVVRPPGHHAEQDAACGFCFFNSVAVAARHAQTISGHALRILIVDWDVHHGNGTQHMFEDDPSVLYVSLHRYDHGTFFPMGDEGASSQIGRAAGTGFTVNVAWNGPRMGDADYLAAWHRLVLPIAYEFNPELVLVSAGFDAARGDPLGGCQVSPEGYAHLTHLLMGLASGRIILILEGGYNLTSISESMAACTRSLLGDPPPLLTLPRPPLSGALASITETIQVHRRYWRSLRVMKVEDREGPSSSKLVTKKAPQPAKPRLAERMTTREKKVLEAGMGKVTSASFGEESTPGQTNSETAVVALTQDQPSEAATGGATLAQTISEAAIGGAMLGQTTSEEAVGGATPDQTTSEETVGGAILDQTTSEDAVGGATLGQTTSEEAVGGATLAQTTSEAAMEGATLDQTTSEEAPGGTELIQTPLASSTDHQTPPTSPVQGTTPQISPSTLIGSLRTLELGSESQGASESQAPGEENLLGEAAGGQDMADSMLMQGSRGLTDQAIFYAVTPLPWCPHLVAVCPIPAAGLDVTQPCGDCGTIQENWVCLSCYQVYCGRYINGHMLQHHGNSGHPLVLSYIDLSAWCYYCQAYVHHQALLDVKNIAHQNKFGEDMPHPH
The experiment in a line: HDAC enzyme activity inhibition (in vitro), HDAC6 assay. Type of assay: biochemical. The note with it: samples at 0.1, 1, 10, 100 and 1000 nM; 37° C. 60 minutes; fluorescence Ex 390, Em 460; read-out: HDAC6 IC50. Summed up:
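HDAC6 human recombinant enzyme with fluorimetric substrate; […]. Reaction 60 min at 37° C, then developer 30 min at 37° C; fluorescence read at Ex 390/Em 460.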

T1 sequence (Q13547 whole entry): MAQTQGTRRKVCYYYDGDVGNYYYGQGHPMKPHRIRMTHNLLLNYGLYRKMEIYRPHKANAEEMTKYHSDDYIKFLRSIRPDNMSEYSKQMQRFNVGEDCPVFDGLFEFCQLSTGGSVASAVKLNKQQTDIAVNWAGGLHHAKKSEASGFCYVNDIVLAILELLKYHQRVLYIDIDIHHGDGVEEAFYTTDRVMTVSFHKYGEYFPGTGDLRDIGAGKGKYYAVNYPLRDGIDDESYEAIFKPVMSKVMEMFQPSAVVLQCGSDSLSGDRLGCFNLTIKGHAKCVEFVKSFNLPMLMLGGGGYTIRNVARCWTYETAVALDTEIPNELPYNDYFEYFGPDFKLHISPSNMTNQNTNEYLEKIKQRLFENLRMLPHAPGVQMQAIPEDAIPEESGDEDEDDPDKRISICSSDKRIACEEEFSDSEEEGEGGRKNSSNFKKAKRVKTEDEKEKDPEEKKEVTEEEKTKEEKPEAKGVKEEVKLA

On to `CCN1CCC(n2c(=O)n(Cc3ccc(-c4nnc(C(F)F)o4)cn3)c3ccc(-c4cccnc4)cc32)CC1` [Compound 281, 1-((5-(5-(difluoromethyl)-1,3,4-oxadiazole-2-yl)pyridine-2-yl)methyl)-3-(1-ethylpiperidine-4-yl)-5-(pyridine-3-yl)-1,3-dihydro-2H-benzo[d]imidazole-2-one], for which the IC50 at HDAC1 is > 10 µM; on HDAC6 human recombinant, 18 nM.

As to `O=c1n(Cc2ccc(-c3nnc(C(F)F)o3)cn2)c2ccc(-c3ccncc3)cc2n1C1CCN(C2COC2)CC1` [Compound 282, 1-((5-(5-(difluoromethyl)-1,3,4-oxadiazole-2-yl)pyridine-2-yl)methyl)-3-(1-(oxetan-3-yl)piperidine-4-yl)-5-(pyridine-4-yl)-1,3-dihydro-2H-benzo[d]imidazole-2-one], the results for the IC50 at HDAC1 and on HDAC6 human recombinant were > 10 µM and 16 nM, respectively.

Turning to `CCN1CCC(n2c(=O)n(Cc3ccc(-c4nnc(C(F)F)o4)cn3)c3ccc(-c4ccncc4)cc32)CC1` [Compound 283, 1-((5-(5-(difluoromethyl)-1,3,4-oxadiazole-2-yl)pyridine-2-yl)methyl)-3-(1-ethylpiperidine-4-yl)-5-(pyridine-4-yl)-1,3-dihydro-2H-benzo[d]imidazole-2-one], the IC50 at HDAC1 was > 10 µM; at HDAC6 human recombinant it was 23 nM.

Turning to `Cn1c(=O)n(Cc2ccc(-c3nnc(C(F)F)o3)cn2)c2cc(F)c(N3CCN(Cc4cccc5[nH]ccc45)CC3)cc21` [Compound 284, 5-(4-((1H-indole-4-yl)methyl)piperazine-1-yl)-1-((5-(5-(difluoromethyl)-1,3,4-oxadiazole-2-yl)pyridine-2-yl)methyl)-6-fluoro-3-methyl-1,3-dihydro-2H-benzo[d]imidazole-2-one], the results for the IC50 at HDAC1 and at HDAC6 human recombinant were > 10 µM and 59 nM, respectively.

As for `Cn1c(=O)n(Cc2ccc(-c3nnc(C(F)F)o3)cn2)c2cc(F)c(N3CCN(Cc4cn[nH]c4)CC3)cc21` [Compound 285, 5-(4-((1H-pyrazole-4-yl)methyl)piperazine-1-yl)-1-((5-(5-(difluoromethyl)-1,3,4-oxadiazole-2-yl)pyridine-2-yl)methyl)-6-fluoro-3-methyl-1,3-dihydro-2H-benzo[d]imidazole-2-one], the IC50 at HDAC1 was > 10 µM; at HDAC6 human recombinant it was 33 nM.

As for `O=c1n(Cc2ccc(-c3nnc(C(F)F)o3)cn2)c2cc(F)c(-c3cccnc3)cc2n1[C@@H]1CCN(C2COC2)C1` [Compound 286, (R)-1-((5-(5-(difluoromethyl)-1,3,4-oxadiazole-2-yl)pyridine-2-yl)methyl)-6-fluoro-3-(1-(oxetan-3-yl)pyrrolidine-3-yl)-5-(pyridine-3-yl)-1,3-dihydro-2H-benzo[d]imidazole-2-one], the IC50 on HDAC1 was > 10 µM; at HDAC6 human recombinant, 9 nM.

As to `O=c1n(Cc2ccc(-c3nnc(C(F)F)o3)cn2)c2cc(F)c(-c3ccncc3)cc2n1[C@@H]1CCN(C2COC2)C1` [Compound 287, (R)-1-((5-(5-(difluoromethyl)-1,3,4-oxadiazole-2-yl)pyridine-2-yl)methyl)-6-fluoro-3-(1-(oxetan-3-yl)pyrrolidine-3-yl)-5-(pyridine-4-yl)-1,3-dihydro-2H-benzo[d]imidazole-2-one], the IC50 at HDAC1 is > 10 µM; at HDAC6 human recombinant, 14 nM.

For the compound `O=c1n(Cc2ccc(-c3nnc(C(F)F)o3)cn2)c2cc(F)c(-c3cccc4[nH]ccc34)cc2n1[C@@H]1CCN(C2COC2)C1` [Compound 288, (R)-1-((5-(5-(difluoromethyl)-1,3,4-oxadiazole-2-yl)pyridine-2-yl)methyl)-6-fluoro-5-(1H-indole-4-yl)-3-(1-(oxetan-3-yl)pyrrolidine-3-yl)-1,3-dihydro-2H-benzo[d]imidazole-2-one], the values for the IC50 at HDAC1 and on HDAC6 human recombinant were > 10 µM and 10 nM, respectively.

For the compound `O=c1n(Cc2ccc(-c3nnc(C(F)F)o3)cn2)c2cc(F)c(-c3cccc4[nH]ccc34)cc2n1CC1CCN(C2COC2)CC1` [Compound 289, 1-((5-(5-(difluoromethyl)-1,3,4-oxadiazole-2-yl)pyridine-2-yl)methyl)-6-fluoro-5-(1H-indole-4-yl)-3-((1-(oxetan-3-yl)piperidine-4-yl)methyl)-1,3-dihydro-2H-benzo[d]imidazole-2-one], the IC50 at HDAC1 is > 10 µM; at HDAC6 human recombinant, 4 nM.

Turning to `O=c1n(Cc2ccc(-c3nnc(C(F)F)o3)cn2)c2cc(F)c(-c3cccnc3)cc2n1CC1CCN(C2COC2)CC1` [Compound 290, 1-((5-(5-(difluoromethyl)-1,3,4-oxadiazole-2-yl)pyridine-2-yl)methyl)-6-fluoro-3-((1-(oxetan-3-yl)piperidine-4-yl)methyl)-5-(pyridine-3-yl)-1,3-dihydro-2H-benzo[d]imidazole-2-one], the IC50 at HDAC1 was > 10 µM; at HDAC6 human recombinant, 7 nM.

`O=c1n(Cc2ccc(-c3nnc(C(F)F)o3)cn2)c2cc(F)c(-c3ccncc3)cc2n1CC1CCN(C2COC2)CC1` [Compound 291, 1-((5-(5-(difluoromethyl)-1,3,4-oxadiazole-2-yl)pyridine-2-yl)methyl)-6-fluoro-3-((1-(oxetan-3-yl)piperidine-4-yl)methyl)-5-(pyridine-4-yl)-1,3-dihydro-2H-benzo[d]imidazole-2-one]: the IC50 on HDAC1 is > 10 µM; on HDAC6 human recombinant, 9 nM.

For `O=c1n(Cc2ccc(-c3nnc(C(F)F)o3)cn2)c2cc(F)c(-c3cn[nH]c3)cc2n1CC1CCN(C2COC2)CC1` [Compound 292, 1-((5-(5-(difluoromethyl)-1,3,4-oxadiazole-2-yl)pyridine-2-yl)methyl)-6-fluoro-3-((1-(oxetan-3-yl)piperidine-4-yl)methyl)-5-(1H-pyrazole-4-yl)-1,3-dihydro-2H-benzo[d]imidazole-2-one], the concentration for half-maximal inhibition (IC50) was > 10 µM at HDAC1 and 3 nM on HDAC6 human recombinant.

In the case of `O=c1n(Cc2ccc(-c3nnc(C(F)F)o3)cn2)c2cc(F)c(-c3cccnc3)cc2n1[C@@H]1CCCN(C2COC2)C1` [Compound 293, (R)-1-((5-(5-(difluoromethyl)-1,3,4-oxadiazole-2-yl)pyridine-2-yl)methyl)-6-fluoro-3-(1-(oxetan-3-yl)piperidine-3-yl)-5-(pyridine-3-yl)-1,3-dihydro-2H-benzo[d]imidazole-2-one], the IC50 was > 10 µM on HDAC1 and 8 nM at HDAC6 human recombinant.

As to `O=c1n(Cc2ccc(-c3nnc(C(F)F)o3)cn2)c2cc(F)c(-c3ccncc3)cc2n1[C@@H]1CCCN(C2COC2)C1` [Compound 294, (R)-1-((5-(5-(difluoromethyl)-1,3,4-oxadiazole-2-yl)pyridine-2-yl)methyl)-6-fluoro-3-(1-(oxetan-3-yl)piperidine-3-yl)-5-(pyridine-4-yl)-1,3-dihydro-2H-benzo[d]imidazole-2-one], the IC50 at HDAC1 was > 10 µM; on HDAC6 human recombinant it was 11 nM.

For the compound `O=c1n(Cc2ccc(-c3nnc(C(F)F)o3)cn2)c2cc(F)c(-c3cccc4[nH]ccc34)cc2n1[C@@H]1CCCN(C2COC2)C1` [Compound 295, (R)-1-((5-(5-(difluoromethyl)-1,3,4-oxadiazole-2-yl)pyridine-2-yl)methyl)-6-fluoro-5-(1H-indole-4-yl)-3-(1-(oxetan-3-yl)piperidine-3-yl)-1,3-dihydro-2H-benzo[d]imidazole-2-one], the IC50 on HDAC1 is > 10 µM; on HDAC6 human recombinant, 10 nM.

As to `O=c1n(Cc2ccc(-c3nnc(C(F)F)o3)cn2)c2cc(F)c(-c3cn[nH]c3)cc2n1[C@@H]1CCCN(C2COC2)C1` [Compound 296, (R)-1-((5-(5-(difluoromethyl)-1,3,4-oxadiazole-2-yl)pyridine-2-yl)methyl)-6-fluoro-3-(1-(oxetan-3-yl)piperidine-3-yl)-5-(1H-pyrazole-4-yl)-1,3-dihydro-2H-benzo[d]imidazole-2-one], the values for the IC50 at HDAC1 and at HDAC6 human recombinant were > 10 µM and 5 nM, respectively.

As a reminder, the IC50 is the concentration at which inhibition is half-maximal.
